The values that follow come from patent US20230140290A1, “SALICYLAMIDE DERIVATIVES AND RELATED METHODS OF MAKING” (THE BOARD OF REGENTS OF THE UNIVERSITY OF TEXAS SY, priority 2020, published 2023).

Like-named read-outs stand apart in the source and are kept apart here.

The test system of data set [1] is HAdV5-GFP. In words: Plaque assay (inhibition of HAdV plaque formation). In kind it is cell-based, HAdV-5. The conditions noted are these: for inhibition at 10 µM: read-out: Plaque Assay (%) Inhibition (10 μM); for Selectivity index (SI): ratio of CC50 to IC50 in plaque assay. The method, boiled down: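 Cells at 80-90% confluency infected with HAdV5-GFP at 0.06 vp/cell, rocked 2 h at 37° C, then washed with PBS. Compounds tested at 10 μM and in dose-response from 10 to 0.3 μM, included in the post-infection mixture.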

Data set [2] deals with A549 cells. Nature of the data set: Cytotoxicity assay (AlamarBlue). Particulars: read-out: CC50 (μM), cytotoxic concentration 50%; A549 cell line, 48 h. Here is the method:
Cytotoxicity Assay. The cytotoxicity of the compounds was analyzed by commercial kit AlamarBlue® (Invitrogen, Ref. DAL1025). A549 cells at a density of 5×10^3 cells per well in 96-well plates were seeded. […] Cells were then incubated at 37° C. for 48 h following the kit protocol. The cytotoxic concentration 50 (CC50) value was obtained using the statistical package GraphPad Prism. This assay was performed in duplicate.
(Alamar Blue is a resazurin reagent that responds to reducing activity.)

[3] abbreviates: read-out: Plaque Assay IC50 (μM), HAdV5-GFP, low MOI, 293β5 cell line.

Take `O=C(Nc1ccc(N(CCCO)CCCO)cc1Cl)c1cc(Cl)ccc1O` [Compound 121, N-(4-(Bis(3-hydroxypropyl)amino)-2-chlorophenyl)-5-chloro-2-hydroxybenzamide]: the inhibition at 10 µM in data set [1] was 35 ± 7.1%. The “Plaque Assay (%) Inhibition (10 μM)” value in data set [1] ({}) is “inactive”. Also, the CC50 in data set [2] came to 114 ± 9.2 µM.
As for `CC(C)(C)OC(=O)NCCNc1ccc(NC(=O)c2cc(Cl)ccc2O)c(Cl)c1` [Compound 122, tert-Butyl (2-((3-chloro-4-(5-chloro-2-hydroxybenzamido)phenyl)amino)ethyl)carbamate], in data set [1], the “Selectivity index (SI)” value came to 9.0 and the inhibition at 10 µM was 100%. The concentration for half-maximal inhibition (IC50) in data set [1] (setting [3]) was 2.78 µM. Moreover, the CC50 in data set [2] stood at 25 ± 5.7 µM.
For the molecule `CC(C)(C)OC(=O)N1CCC(Nc2ccc(NC(=O)c3cc(Cl)ccc3O)c(Cl)c2)CC1` [Compound 124, tert-Butyl 4-((3-chloro-4-(5-chloro-2-hydroxybenzamido)phenyl)amino)piperidine-1-carboxylate], in data set [1], the “Selectivity index (SI)” value came out at 82.6 and the inhibition at 10 µM is 88.9 ± 9%. In addition, the IC50 in data set [1] (setting [3]) came to 1.21 µM. The CC50 in data set [2] worked out at 100 µM.
For `Cc1ccc(O)c(C(=O)Nc2ccc(NC3CCCC3)cc2Cl)c1` [Compound 136, N-(2-Chloro-4-(cyclopentylamino)phenyl)-2-hydroxy-5-methylbenzamide] the same measures were 11.4, 99.6 ± 0.5%, 2.72 µM and 30.9 ± 1.6 µM.
For `CS(=O)(=O)Nc1ccc(Cl)cc1C(=O)Nc1ccc(NC2CCCC2)cc1Cl` [Compound 140, 5-Chloro-N-(2-chloro-4-(cyclopentylamino)phenyl)-2-(methylsulfonamido)benzamide] the same measures were 20.6, 99.8 ± 0.4%, 1.72 µM and 35.4 ± 2.7 µM.
On to `O=C(Nc1ccc(NC2CCCC2)cc1)c1cc(Cl)ccc1O` [Compound 141, 5-Chloro-N-(4-(cyclopentylamino)phenyl)-2-hydroxybenzamide], for which, in data set [1], the “Selectivity index (SI)” value was 3.9 and the inhibition at 10 µM was found to be 99.8 ± 0.3%. The half-inhibitory concentration (IC50) in data set [1] (setting [3]) worked out at 2.6 µM. For the same molecule, the CC50 in data set [2] was 10 ± 2.2 µM.
Regarding `O=C(Nc1ccc(NC2CCCC2)cc1F)c1cc(Cl)ccc1O` [Compound 142, 5-Chloro-N-(4-(cyclopentylamino)-2-fluorophenyl)-2-hydroxybenzamide], in data set [1], the “Selectivity index (SI)” value is on record as 49.1 and the inhibition at 10 µM stood at 98.7 ± 0.4%. For the same molecule, the concentration for half-maximal inhibition (IC50) in data set [1] (setting [3]) amounted to 1.04 µM. Also, in data set [2], the CC50 came to 51 ± 13.3 µM.
On to `O=C(Nc1ccc(NC2CCCC2)c(Cl)c1)c1cc(Cl)ccc1O` [Compound 143, 5-Chloro-N-(3-chloro-4-(cyclopentylamino)phenyl)-2-hydroxybenzamide], for which, in data set [1], the “Selectivity index (SI)” value is 20.1 and the inhibition at 10 µM came to 100%. The 50% inhibitory concentration (IC50) in data set [1] (setting [3]) worked out at 0.84 µM. In data set [1] (read-out: Plaque Assay IC50, HAdV5-GFP, low MOI, 293β5 cell line), the concentration for half-maximal inhibition (IC50) is 1.34 µM. In addition, the CC50 in data set [2] stood at 16.9 ± 0.1 µM.
With `O=C(Nc1cc(NC2CCCC2)ccc1F)c1cc(Cl)ccc1O` [Compound 144, 5-Chloro-N-(5-(cyclopentylamino)-2-fluorophenyl)-2-hydroxybenzamide], in data set [1], the “Selectivity index (SI)” value was 32.8 and the inhibition at 10 µM stood at 99.8 ± 0.4%. Further, in data set [1] (setting [3]), the half-maximal inhibitory concentration (IC50) was 1.34 ± 0.05 µM. In data set [2], the CC50 came out at 44 ± 12.8 µM.
For `O=C(NCc1ccc(NC2CCCC2)cc1Cl)c1cc(Cl)ccc1O` [Compound 145, 5-Chloro-N-(2-chloro-4-(cyclopentylamino)benzyl)-2-hydroxybenzamide] the same measures were 3.6, 98.5 ± 0.7%, 7.97 ± 0.43 µM and 28.3 ± 2.5 µM.

As usually defined, the inhibition is how much of the control response was suppressed. Usually IC50 stands for the concentration that inhibits the measured activity by half.
